This passage reports IC50 results from patent US10399933B2, “Inhibitors of indoleamine-2,3-dioxygenase for the treatment of cancer” (BRISTOL-MYERS SQUIBB COMPANY, priority 2015, dated 2019).

The target in assay [1] is T1, human IDO1 (Homo sapiens, UniProt P14902). The assay can be described thus: Human IDO-1 inhibitory activity in HEK cells (human IDO1/HEK293 cellular assay). Type of assay: cell-based. The following applies: HEK human IDO-1 cellular assay; 500 nM reference standard = 100% inhibition, DMSO = 0%. Also noted: expressed in transfected cells. How it is done:
They were cultured in medium (DMEM with 10% FBS) containing 1 mg/ml G418 for two weeks.
The human IDO1/HEK293 cells were seeded at 10,000 cells per 50 μL per well with RPMI/phenol red free media contains 10% FBS in a 384-well black wall clear bottom tissue culture plate (Matrix Technologies LLC) 100 nL of certain concentration of compound was then added to each well using ECHO liquid handling systems. The cells were incubated for 20 hours in 37° C. incubator with 5% CO2.
The compound treatments were stopped by adding trichloroacetic acid (Sigma-Aldrich) to a final concentration at 0.2%. The cell plate was further incubated at 50° C. for 30 minute. The equal volume supernatant (20 μL) and 0.2% (w/v) Ehrlich reagent (4-dimethylaminobenzaldehyde, Sigma-Aldrich) in glacial acetic acid were mixed in a new clear bottom 384-well plate. This plate was then incubated at room temperature for 30 minute. The absorbance at 490 nm was measured on Envision plate reader.

The target in assay [2] is T1, human IDO1. The assay can be described thus: Human IDO-1 inhibitory activity in Hela cells (interferon-gamma stimulated). The assay is classed as cell-based. Also noted: endogenous in cells; host or cells: HeLa cells stimulated with interferon-gamma. The settings on record: 18 hours, unstimulated wells = 100% inhibition. How it is done:
HeLa cells were seeded at 20,000 cells per 30 μL per well with RPMI/phenol red free media containing 10% FBS in a 384-well tissue culture plate (black with clear bottoms). 50 nL of compound was added to cells and incubated at 37° C. for one hour. 20 μL of the recombinant human Interferon-gamma (R&D System, Cat. #285-IF, at final concentration of 10 ng/ml) or recombinant murine Interferon-gamma (PEPROTECH® Inc., Cat. #315-05, final concentration of 5 ng/ml) was added to activate IDO signaling. The cells were incubated for 18 hours in 37° C. incubator with 5% CO2.
Compound treatment was stopped by adding 5 μl trichloroacetic acid to a final concentration of 3%. Subsequently, the cell plate was further incubated at 50° C. for 30 minute. An equal volume supernatant (20 μL) and 2% (w/v) Ehrlich reagent (4-dimethylaminobenzaldehyde) in glacial acetic acid were mixed in a new clear bottom 384-well plate. This plate was incubated at room temperature for 30 minutes. Absorbance at 490 nm was measured on Envision plate reader.
Compound IC50 values were calculated using counts from unstimulated (no INF-gamma treatment) wells as 100% inhibition. INF-gamma treatment without compound treatment as 0% inhibition.

Where only a bound is given, the exact number is not on record here.

T1 sequence (P14902 whole entry): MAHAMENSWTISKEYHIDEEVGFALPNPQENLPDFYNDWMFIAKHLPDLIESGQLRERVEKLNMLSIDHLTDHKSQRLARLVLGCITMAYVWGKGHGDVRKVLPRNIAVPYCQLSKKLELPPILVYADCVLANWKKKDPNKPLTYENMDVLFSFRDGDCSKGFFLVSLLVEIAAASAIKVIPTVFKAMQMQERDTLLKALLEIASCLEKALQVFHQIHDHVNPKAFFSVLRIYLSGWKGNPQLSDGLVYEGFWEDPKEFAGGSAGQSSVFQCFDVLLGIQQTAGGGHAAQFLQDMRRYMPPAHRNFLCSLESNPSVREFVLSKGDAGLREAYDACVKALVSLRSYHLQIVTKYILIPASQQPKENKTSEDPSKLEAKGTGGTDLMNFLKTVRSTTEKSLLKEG

In general, IC50 refers to the midpoint of a concentration-inhibition curve. Consider “3-(4-((1,1- dioxidotetrahydro-2H- thiopyran-4-yl)(ethyl) amino)-3-((4-fluorophenyl) amino)phenyl)-4- isopropoxybutanoic acid [Example 300]”, for which the IC50 against human IDO1 [1] was less than 50 nM.

Turning to “3-(4-((1,1-dioxidotetrahydro-2H- thiopyran-4-yl)(ethyl)amino)-3-((4- fluorophenyl)amino)phenyl)-4- isopropoxybutanoic acid [Example 338]”, the IC50 against human IDO1 [1] was less than 50 nM.

As to `CCC(CC(=O)O)c1ccc(N2CCN(C(=O)OC)CC2)c(Nc2ccc(C#N)cc2)c1` (single isomer, unassigned) [Example 668 Enantiomer 2, 3-(3-((4-Cyanophenyl)amino)-4-(4-(methoxycarbonyl)piperazin-1-yl)phenyl)pentanoic Acid], the concentration for half-maximal inhibition (IC50) against human IDO1 [2] is more than 50 nM.

`CCC(CC(=O)O)c1ccc(N2CCNCC2)c(Nc2ccc(C#N)cc2)c1` (single isomer, unassigned) [Example 671 Enantiomer 2, 3-(3-((4-Cyanophenyl)amino)-4-(piperazin-1-yl)phenyl) pentanoic Acid] came in with a half-inhibitory concentration (IC50) at human IDO1 [2] of more than 50 nM.

For `CC(CC(=O)O)c1ccc(N2C[C@@H](C)O[C@@H](C)C2)c(NC(=O)Nc2ccc(Cl)cc2F)c1` (single isomer, unassigned) [Example 749 Enantiomer 2], the IC50 on human IDO1 [2] is more than 50 nM.

As to `CCN(c1cc(F)c(C(COC)CC(=O)O)cc1Nc1ccc(C#N)c(F)c1)C1CCOCC1` (single isomer, unassigned) [Example 853, 3-(5-((4-cyano-3-fluorophenyl)amino)-4-(ethyl(tetrahydro-2H-pyran-4-yl)amino)-2-fluorophenyl)-4-methoxybutanoic acid], the IC50 on human IDO1 [2] was less than 5 nM.

As to `CCN(c1cc(F)c(C(COC)CC(=O)O)cc1Nc1ccc(C#N)cc1F)C1CCOCC1` (single isomer, unassigned) [Example 854, 3-(5-((4-cyano-2-fluorophenyl)amino)-4-(ethyl(tetrahydro-2H-pyran-4-yl)amino)-2-fluorophenyl)-4-methoxybutanoic acid], on human IDO1 [2], the IC50 was less than 5 nM.

On human IDO1 [2], `CCC(CC(=O)O)c1ccc(N(CCOC)C2CCOCC2)c(Nc2ccc(Cl)cc2)c1` (single isomer, unassigned) [Example 1257 E2, 3-(3-((4-Chlorophenyl)amino)-4-((2-methoxyethyl)(tetrahydro-2H-pyran-4-yl)amino)phenyl)pentanoic Acid] showed an IC50 of less than 5 nM.

For the molecule `CCC(CC(=O)O)c1ccc(N(CCOC)C2CCOCC2)c(NC(=O)Nc2ccc(C)cc2)c1` (single isomer, unassigned) [Example 1264 E2, 3-(4-((2-Methoxyethyl)(tetrahydro-2H-pyran-4-yl)amino)-3-(3-(p-tolyl)ureido)phenyl)pentanoic Acid], the IC50 against human IDO1 [2] is more than 50 nM.

In the case of `COCC(CC(=O)O)c1ccc(N2CCOC(C)C2)c(Nc2ccc(Cl)cc2)c1` (single isomer, unassigned) [Example 1311 D1, 3-(3-((4-Chlorophenyl)amino)-4-(2-methylmorpholino)phenyl)-4-methoxybutanoic Acid], at human IDO1 [2], the half-inhibitory concentration (IC50) was more than 50 nM.

`COCC(CC(=O)O)c1ccc(N2CCOC(C)C2)c(NC(=O)Nc2ccc(Cl)cc2F)c1` (single isomer, unassigned) [Example 1314 D2, 3-(3-(3-(4-Chloro-2-fluorophenyl)ureido)-4-(2-methylmorpholino)phenyl)-4-methoxybutanoic Acid] came in with an IC50 on human IDO1 [2] of more than 50 nM.

Regarding `COCC(CC(=O)O)c1ccc(N2CCOC(C)(C)C2)c(Nc2ccc(Cl)cc2)c1` (single isomer, unassigned) [Example 1315 E2, 3-(3-((4-Chlorophenyl)amino)-4-(2,2-dimethylmorpholino)phenyl)-4-methoxybutanoic Acid], the IC50 on human IDO1 [2] is more than 50 nM.

At human IDO1 [2], `COCC(CC(=O)O)c1ccc(N2CCOC(C)(C)C2)c(NC(=O)Nc2ccc(Cl)cc2F)c1` (single isomer, unassigned) [Example 1318 E2, 3-(3-(3-(4-Chloro-2-fluorophenyl)ureido)-4-(2,2-dimethylmorpholino)phenyl)-4-methoxybutanoic Acid] came in with a 50% inhibitory concentration (IC50) of more than 50 nM.

On human IDO1 [2], `CCC(CC(=O)O)c1ccc(N2CCOC(C)(C)C2)c(Nc2ccc(Cl)cc2)c1` (single isomer, unassigned) [Example 1319 E2, 3-(3-((4-Chlorophenyl)amino)-4-(2,2-dimethylmorpholino)phenyl)pentanoic Acid] registered a 50% inhibitory concentration (IC50) of less than 50 nM.

On human IDO1 [2], `CCC(CC(=O)O)c1ccc(N2CCOC(C)(C)C2)c(NC(=O)Nc2ccc(Cl)cc2F)c1` (single isomer, unassigned) [Example 1322 E2, 3-(3-(3-(4-Chloro-2-fluorophenyl)ureido)-4-(2,2-dimethylmorpholino)phenyl)pentanoic Acid] had a concentration for half-maximal inhibition (IC50) of more than 50 nM.

At human IDO1 [2], `COC[C@@H](CC(=O)O)c1ccc(N2CCOc3ccccc32)c(Nc2ccc(C#N)cc2)c1` (single isomer, unassigned) [Example 1358] had an IC50 of more than 50 nM.

`COC[C@H](CC(=O)O)c1ccc(N2CCOc3ccccc32)c(Nc2ccc(C#N)cc2)c1` (single isomer, unassigned) [Example 1359] showed an IC50 against human IDO1 [2] of more than 50 nM.

Molecule `CCN(c1ccc(C(COC(C)C)CC(=O)O)cc1Nc1ccc(F)cc1)C1CCS(=O)(=O)CC1` (stereo not shown) [Example 340] registered an IC50 at human IDO1 [2] of less than 50 nM.

For the molecule “(R)-3-(3-((4-chlorophenyl)amino)- 4-((1,1-dioxidotetrahydro-2H- thiopyran-4-yl)(ethyl)amino) phenyl)-4-isopropoxybutanoic acid [Example 330]”, on human IDO1 [2], the IC50 is less than 5 nM.

With “(R)-3-(3-((4-cyano-3- methylphenyl)amino)-4- (ethyl(tetrahydro-2H-pyran-4- yl)amino)phenyl)-4- methoxybutanoic acid [Example 391]”, the half-inhibitory concentration (IC50) against human IDO1 [2] is less than 50 nM.

Take “(R)-3-(4-((1,1-dioxidotetrahydro- 2H-thiopyran-4-yl)(ethyl)amino)- 3-((2-ethoxypyrimidin-5- yl)amino)phenyl)-4- isopropoxybutanoic acid [Example 333]”: on human IDO1 [2], the IC50 is more than 50 nM.

The molecule “(R)-3-(4-((1,1-dioxidotetrahydro- 2H-thiopyran-4-yl)(ethyl)amino)- 3-((2-methoxypyrimidin-5- yl)amino)phenyl)-4- isopropoxybutanoic acid [Example 332]” registered a concentration for half-maximal inhibition (IC50) against human IDO1 [2] of more than 50 nM.

On to “(R)-3-(4-((1,1-dioxidotetrahydro- 2H-thiopyran-4-yl)(ethyl)amino)- 3-((4-fluorophenyl)amino)phenyl)- 4-isopropoxybutanoic acid [Example 331]”, for which the IC50 against human IDO1 [2] is less than 50 nM.

“(R)-3-(4-(ethyl(tetrahydro-2H- pyran-4-yl)amino)-3-((2- (tetrahydro-2H-pyran-4- yl)pyrimidin-5-yl)amino) phenyl)-4-methoxybutanoic acid [Example 403]” registered a half-inhibitory concentration (IC50) at human IDO1 [2] of more than 50 nM.

Molecule “(R)-3-(4-(ethyl(tetrahydro-2H- pyran-4-yl)amino)-3-((3- (1,1,2,2-tetrafluoroethoxy) phenyl)amino)phenyl)-4- methoxybutanoic acid [Example 398]” gave an IC50 against human IDO1 [2] of less than 5 nM.

On to “(S)-3-(3-((4-chlorophenyl)amino)- 4-((1,1-dioxidotetrahydro-2H- thiopyran-4-yl)(ethyl)amino) phenyl)-4-isopropoxybutanoic acid [Example 325]”, for which the IC50 against human IDO1 [2] is less than 5 nM.

As to “(S)-3-(3-((4-cyano-3- ethoxyphenyl)amino)-4- (ethyl(tetrahydro-2H-pyran- 4-yl)amino)phenyl)-4- methoxybutanoic acid [Example 380]”, the IC50 against human IDO1 [2] was less than 50 nM.

As to “(S)-3-(4-((1,1-dioxidotetrahydro- 2H-thiopyran-4-yl)(ethyl)amino)- 3-((2-ethoxypyrimidin-5-yl)amino) phenyl)-4-isopropoxybutanoic acid [Example 328]”, the IC50 on human IDO1 [2] was more than 50 nM.

“(S)-3-(4-((1,1-dioxidotetrahydro- 2H-thiopyran-4-yl)(ethyl)amino)- 3-((2-methoxypyrimidin-5- yl)amino)phenyl)-4- isopropoxybutanoic acid [Example 327]” yielded an IC50 against human IDO1 [2] of more than 50 nM.

On human IDO1 [2], “(S)-3-(4-((1,1-dioxidotetrahydro- 2H-thiopyran-4-yl)(ethyl)amino)- 3-((4-fluorophenyl)amino)phenyl)- 4-isopropoxybutanoic acid [Example 326]” had an IC50 of less than 50 nM.

In turn, “(S)-3-(4-(ethyl(tetrahydro- 2H-pyran-4-yl)amino)-3-((2- (tetrahydro-2H-pyran-4- yl)pyrimidin-5-yl)amino) phenyl)-4-methoxybutanoic acid [Example 366]” had a 50% inhibitory concentration (IC50) against human IDO1 [2] of more than 50 nM.
